In patent US8034924B2, “Process for production of crystal of purine nucleoside compound” (Ajinomoto Co., Inc., priority 2007, dated 2011):

Experiment: Storage stability of crystals of 2′,3′-dideoxyinosine (increase of hypoxanthine after storage, HPLC)
Assay type: physicochemical
Conditions: crystals stored at 60° C., at RH75% for 7 days; Table 1
Description: In order to examine the storage stability, the obtained crystals were stored at 60° C., at RH75% for 7 days.
The concentration of the phosphate on the surface of the crystals and the amount of hypoxanthine were analyzed in the conditions shown in the following Table 2.

| SMILES | Increase of hypoxanthine after storage (%/DDI) |
| --- | --- |
| OC[C@@H]1CC[C@H](n2cnc3c(O)ncnc32)O1 [Comp. Ex. 1, 2′,3′-dideoxyinosine, reference compound] | 2.24 |
| OC[C@@H]1CC[C@H](n2cnc3c(O)ncnc32)O1 [Comp. Ex. 2, 2′,3′-dideoxyinosine, reference compound] | 1.91 |
| OC[C@@H]1CC[C@H](n2cnc3c(O)ncnc32)O1 [Comp. Ex. 3, 2′,3′-dideoxyinosine, reference compound] | 2.21 |
| OC[C@@H]1CC[C@H](n2cnc3c(O)ncnc32)O1 [Comp. Ex. 4, 2′,3′-dideoxyinosine, reference compound] | 2.20 |
| OC[C@@H]1CC[C@H](n2cnc3c(O)ncnc32)O1 [Ex. 1, 2′,3′-dideoxyinosine] | 0.45 |
| OC[C@@H]1CC[C@H](n2cnc3c(O)ncnc32)O1 [Ex. 2, 2′,3′-dideoxyinosine] | 0.48 |
| OC[C@@H]1CC[C@H](n2cnc3c(O)ncnc32)O1 [Ex. 3, 2′,3′-dideoxyinosine] | 0.20 |
| OC[C@@H]1CC[C@H](n2cnc3c(O)ncnc32)O1 [Ex. 4, 2′,3′-dideoxyinosine] | 0.54 |

Same assay, conditions: crystals stored at 60° C., at RH75% for 7 days; Table 3, phosphate removed by suspending in water vs Example 3

| SMILES | Increase of hypoxanthine after storage (%/DDI) |
| --- | --- |
| OC[C@@H]1CC[C@H](n2cnc3c(O)ncnc32)O1 [Comp. Ex. 5, 2′,3′-dideoxyinosine, reference compound] | 4.32 |
| OC[C@@H]1CC[C@H](n2cnc3c(O)ncnc32)O1 [Ex. 3, 2′,3′-dideoxyinosine] | 0.20 |

Same assay, conditions: crystals stored at 60° C., at RH75% for 7 days; Table 4, degree of washing changed per sample

| SMILES | Increase of hypoxanthine after storage (%/DDI) |
| --- | --- |
| OC[C@@H]1CC[C@H](n2cnc3c(O)ncnc32)O1 [Comp. Ex. 6, 2′,3′-dideoxyinosine, reference compound] | 2.47 |
| OC[C@@H]1CC[C@H](n2cnc3c(O)ncnc32)O1 [Comp. Ex. 7, 2′,3′-dideoxyinosine, reference compound] | 2.24 |
| OC[C@@H]1CC[C@H](n2cnc3c(O)ncnc32)O1 [Comp. Ex. 8, 2′,3′-dideoxyinosine, reference compound] | 2.20 |
| OC[C@@H]1CC[C@H](n2cnc3c(O)ncnc32)O1 [Comp. Ex. 9, 2′,3′-dideoxyinosine, reference compound] | 2.21 |
| OC[C@@H]1CC[C@H](n2cnc3c(O)ncnc32)O1 [Comp. Ex. 10, 2′,3′-dideoxyinosine, reference compound] | 1.91 |
| OC[C@@H]1CC[C@H](n2cnc3c(O)ncnc32)O1 [Ex. 5, 2′,3′-dideoxyinosine] | 1.38 |
| OC[C@@H]1CC[C@H](n2cnc3c(O)ncnc32)O1 [Ex. 6, 2′,3′-dideoxyinosine] | 1.03 |
| OC[C@@H]1CC[C@H](n2cnc3c(O)ncnc32)O1 [Ex. 7, 2′,3′-dideoxyinosine] | 1.19 |
| OC[C@@H]1CC[C@H](n2cnc3c(O)ncnc32)O1 [Ex. 8, 2′,3′-dideoxyinosine] | 0.90 |
| OC[C@@H]1CC[C@H](n2cnc3c(O)ncnc32)O1 [Ex. 9, 2′,3′-dideoxyinosine] | 0.70 |
| OC[C@@H]1CC[C@H](n2cnc3c(O)ncnc32)O1 [Ex. 10, 2′,3′-dideoxyinosine] | 0.97 |
| OC[C@@H]1CC[C@H](n2cnc3c(O)ncnc32)O1 [Ex. 11, 2′,3′-dideoxyinosine] | 0.90 |
| OC[C@@H]1CC[C@H](n2cnc3c(O)ncnc32)O1 [Ex. 12, 2′,3′-dideoxyinosine] | 1.26 |
| OC[C@@H]1CC[C@H](n2cnc3c(O)ncnc32)O1 [Ex. 13, 2′,3′-dideoxyinosine] | 1.04 |
